Experimental data from article PMC12056667 (Chemical Science, 2025).
Several values for one entry are separate records, joined by “and”; a condition that tells them apart may be missing. Equal entries are not always repeated. Where two headings read alike, the source gives them in different places.

How the values were obtained:
[1] = test system: E. coli TOP10 containing plasmid pBAD-TOPO-Tet(X4); assay: Broth microdilution MIC and checkerboard assay; format: cell-based, Escherichia coli; conditions: for MIC: Escherichia coli; for Tet(X) inhibitor MIC / Antibiotic MIC: alone; for Combination (antibiotic/inhibitor) MIC: inhibitor: inhibitor in combination with tigecycline; for Combination (antibiotic/inhibitor) MIC: inhibitor / Combination (antibiotic/inhibitor) MIC: antibiotic: lowest FICI; for Combination (antibiotic/inhibitor) MIC: antibiotic: tigecycline in combination with the inhibitor; for FICI / Outcome: with tigecycline
From the text: Tet(X4) was sub-cloned from the Tet(X4) pET28b-(+) expression vector via TOPO cloning. The insert was amplified using the taq polymerase with the forward primer 5′- […]-3′ and the reverse primer 5′- […]-3’. Following PCR purification (Thermo Fisher Scientific), the A-tailed PCR product was ligated into the pBAD-TOPO vector using a TOPO cloning kit (Invitrogen) according to the manufacturer's protocol. Following amplification in E. coli NEB5α cells (NEBiolabs), the fidelity of the insert was confirmed by Sanger sequencing (Eurofins). For microbiological experiments, E. coli TOP10 cells were used as the recipient strain. Cells were plated on Mueller-Hinton agar (MHA) plates containing ampicillin at 100 μg mL^−1. The introduction of pBAD-TOPO-Tet(X4) was confirmed by colony PCR. Strains were stored in a freezer at −80 °C in cryopreservation beads.
(§1) MIC tests and checkerboard assays were performed in U-bottom, 96-well microtiter plates using a modified broth microdilution protocol following CLSI guidelines. Cation-adjusted Mueller-Hinton Broth (CAMHB) was prepared fresh on the day of testing.[74] […] Bacterial colonies were selected from an overnight culture on MHA plates (supplemented with 0.2%w/vL-arabinose for E. coli TOP10 containing pBAD-TOPO-Tet(X4)) and were suspended in 0.9% saline solution to achieve a 0.5 McFarland standard. A 100 μL aliquot of this suspension was then diluted into 9.9 mL of CAMHB to yield approximately 1.5 × 10^6 cfu mL^−1. 50 μL of the suspension was then added to each well of a microtiter plates. Plates were incubated at 37 °C for 18 h. At least 2 replicates were conducted for each combination. E. coli TOP10 + pBAD-TOPO-Tet(X4) cells were grown in the absence and presence of 0.2%w/vL-arabinose. Analysis of the MIC and checkerboard results were carried out by visual inspection of growth, with and without resazurin dye, an oxidation–reduction indicator.[75] As a measure of synergy, fractional inhibitory concentration index (FICI) was calculated as FICA + FICB, where FICA and FICB are the MICcombination/MICalone for each agent, respectively.[76] Results were interpreted as follows: synergistic (<0.5), indifferent (1.0–4.0) or antagonistic (>4.0).[64] In cases where the MIC exceeded or was below the measured range, the borderline value was taken to calculate the FIC index.

[2] = test system: Acinetobacter spp. NT3-1 – tet(X3); assay: microbe, parasite or virus in culture; format: cell-based; conditions: for Antibiotic MIC: alone
Protocol: (§2) MIC tests and checkerboard assays were performed in U-bottom, 96-well microtiter plates using a modified broth microdilution protocol following CLSI guidelines. Cation-adjusted Mueller-Hinton Broth (CAMHB) was prepared fresh on the day of testing.[74] In brief, assays were set up in a total volume of 100 μL per well and titrations comprised seven 2-fold dilutions of inhibitors and ten 2-fold dilutions of tigecycline in CAMHB. Bacterial colonies were selected from an overnight culture on MHA plates (supplemented with 0.2%w/vL-arabinose for E. coli TOP10 containing pBAD-TOPO-Tet(X4)) and were suspended in 0.9% saline solution to achieve a 0.5 McFarland standard. A 100 μL aliquot of this suspension was then diluted into 9.9 mL of CAMHB to yield approximately 1.5 × 10^6 cfu mL^−1. 50 μL of the suspension was then added to each well of a microtiter plates. Plates were incubated at 37 °C for 18 h. At least 2 replicates were conducted for each combination. E. coli TOP10 + pBAD-TOPO-Tet(X4) cells were grown in the absence and presence of 0.2%w/vL-arabinose. Analysis of the MIC and checkerboard results were carried out by visual inspection of growth, with and without resazurin dye, an oxidation–reduction indicator.[75] As a measure of synergy, fractional inhibitory concentration index (FICI) was calculated as FICA + FICB, where FICA and FICB are the MICcombination/MICalone for each agent, respectively.[76] Results were interpreted as follows: synergistic (<0.5), indifferent (1.0–4.0) or antagonistic (>4.0).[64] In cases where the MIC exceeded or was below the measured range, the borderline value was taken to calculate the FIC index.

[3] = test system: Salmonella enterica T-2a – tet(X4); assay: microbe, parasite or virus in culture; format: cell-based; conditions: for Antibiotic MIC: alone, S. enterica T-2a
Protocol: as §2

[4] = test system: Acinetobacter baumannii NT5-1 – tet(X5); assay: microbe, parasite or virus in culture; format: cell-based; conditions: for Antibiotic MIC: alone, A. baumannii NT5-1
Protocol: as §1

[5] = test system: Escherichia coli T-24a – tet(X4); assay: microbe, parasite or virus in culture; format: cell-based; conditions: for Antibiotic MIC: alone
Protocol: as §1

[6] = test system: Proteus penneri NT6-2 – tet(X6); assay: microbe, parasite or virus in culture; format: cell-based; conditions: for Antibiotic MIC: alone, P. penneri NT6-2
Protocol: as §1

[7] = molecular target: T1, Tet(X4) (Escherichia coli, UniProt A0A3T0V9Y5); assay: FP competitive displacement of probe 6; format: binding; conditions: IC50app, 25 nM 6, 40 nM Tet(X4), 5 mM MgCl2, 1 μM FAD, 100 mM Tris pH 7.0, 0.01% Triton X-100
Protocol: A 2× solution containing 80 nM Tet(X4), 2 μM FAD and 10 mM MgCl2 in the assay buffer was dispensed into the first 22 columns of a 384-well black, non-binding microtiter plate (Greiner Bio-One), 12.5 μL per well, using a microplate reagent dispenser. A solution of 2 μM FAD and 10 mM MgCl2 in the assay buffer was dispensed into the remaining columns to serve as a no enzyme control. A 3-fold, 10-point dilution series of substrates and inhibitors was made in DMSO in a V-bottom 96-well plate (Greiner Bio-One) with a highest concentration of 5 mM or 0.5 mM. Into one column was added DMSO with no inhibitor or substrate, to serve as a positive control. Tigecycline was included as a reference on every plate to ensure reproducibility. 0.5 μL of each dilution was transferred in quadruplicate to the 384-well plate containing enzyme solution using a CyBi-Well liquid-handling robot (CyBio). A solution of 50 nM 6 in the assay buffer was then dispensed, with 12.5 μL per well. The plate was briefly centrifuged (1000 rpm), then incubated at ambient temperature for 30 min prior to measuring the FP. Data points were normalised between the positive and negative controls. Normalised % response was plotted as a function of log10([Inhibitor]), and the IC50^app was determined by fitting the data to the equation: Y = Bottom + (top-bottom)/(1 + 10^Log(IC50) − X) × HillSlope in GraphPad Prism 9.4.1, where Y = % response and X = log10([Inhibitor]). Wells with unusual fluorescence intensities were manually identified and removed from the analysis. […]

[8] = molecular target: T1, Tet(X4); assay: biochemical
Protocol: We then tested the binding of reported type 1 TDase inhibitors to Tet(X4) (Fig. 3f, ESI Fig. S17 ^†).[33,38,39] […] We also developed a complementary endpoint activity assay where the turnover of tigecycline by Tet(X4) in a 96-well plate was quenched by addition of 1%v/v formic acid and analysed chromatographically. The peak integrals of tigecycline and its hydroxylated degradation product at 254 nm following UPLC analysis were measured to determine turnover (Fig. 5a).
[…] A 3-fold, 10-point dilution series of the substrates and inhibitors was made in DMSO with a top concentration of 10 mM, unless otherwise stated, and transferred to the enzyme solution using a CyBi-Well liquid-handling robot (CyBio), 1 μL per well. On each plate, a column of no enzyme negative controls and no inhibitor (DMSO only) positive controls were included. The plate was incubated at 30 °C for 15 min. A solution containing 100 mM TAPS (pH 8.5), 40 μM tigecycline and 200 μM NADPH was then dispensed, with 49 μL per well. The plate was incubated at 30 °C for 20 min at 600 rpm. 10 μL of 10%v/v formic acid solution was then dispensed into all wells. Samples were analysed using an ACQUITY H-Class PLUS UPLC instrument (Waters) equipped with a pre-equilibrated ACQUITY BEH C18 column ([…], […], Waters) using a gradient of 1–50%v/v acetonitrile with 0.1%v/v formic acid in water with 0.1%v/v formic acid over 1.83 minutes at a flow rate of 0.5 mL min^−1. Instrument control and data processing were performed using MassLynx V4.1 software. The peaks representing tigecycline and 11a-hydroxy-tigecycline were integrated, used to calculate % conversion and then normalised between positive and negative controls. The normalised % response was plotted as a function of log10[Inhibitor], and the IC50 determined as described above.

[9] = induced with 0.2%w/v L-arabinose
[10] = inhibitor in combination with tigecycline, lowest FICI
[11] = tigecycline in combination with the inhibitor, lowest FICI

## CN1CCN(CCCN2c3ccccc3Sc3ccc(Cl)cc32)CC1 [Prochlorperazine]
[1]; read-out: Tet(X) Inhibitor MIC, alone, without L-arabinose induction
  MIC: 64 µg/mL
[1]; [9]
  Tet(X) inhibitor MIC: 64 µg/mL
[1]; induced with 0.2%w/v L-arabinose, listed as prochlorperazine
  Tet(X) inhibitor MIC: 16 to 64 µg/mL
[1]; at high concentrations of inhibitor, 0.2%w/v L-arabinose
  reduction of the tigecycline MIC: 2–4 fold
[1]; 0.2%w/v L-arabinose
  Combination (antibiotic/inhibitor) MIC: inhibitor: 16 µg/mL
  Combination (antibiotic/inhibitor) MIC: antibiotic: 2 µg/mL
  FICI: 0.8
  Outcome: Indifferent (indifferent (0.5–4.0))
[1]; without L-arabinose
  Combination (antibiotic/inhibitor) MIC: inhibitor: 32 µg/mL
  Combination (antibiotic/inhibitor) MIC: antibiotic: 0.13 µg/mL
  FICI: 1
  Outcome: indifferent (indifferent (0.5-4.0))
[1]; 0.2%w/v L-arabinose, listed as prochlorperazine
  FICI: 0.5-1
[2]; Acinetobacter, read-out: Tet(X) Inhibitor MIC, alone, Acinetobacter spp. NT3-1
  MIC: 8 µg/mL
[2]; [10]
  Combination (Antibiotic/Inhibitor) MICs: inhibitor: 8 µg/mL
[2]; [11]
  Combination (Antibiotic/Inhibitor) MICs: antibiotic: 4 µg/mL
[2]; with tigecycline
  FICI: 2
  Outcome: indifferent (indifferent (0.5-4.0))
[3]; Salmonella enterica, read-out: Tet(X) Inhibitor MIC
  MIC: > 128 µg/mL
[3]; [10]
  Combination (Antibiotic/Inhibitor) MICs: inhibitor: 64 µg/mL
[3]; [11]
  Combination (Antibiotic/Inhibitor) MICs: antibiotic: 16 µg/mL
[3]; with tigecycline
  FICI: 1
  Outcome: indifferent (indifferent (0.5-4.0))
[4]; Acinetobacter baumannii, read-out: Tet(X) Inhibitor MIC
  MIC: 128 µg/mL
[4]; [10]
  Combination (Antibiotic/Inhibitor) MICs: inhibitor: 64 µg/mL
[4]; [11]
  Combination (Antibiotic/Inhibitor) MICs: antibiotic: 1 µg/mL
[4]; with tigecycline
  FICI: 0.6
  Outcome: indifferent (indifferent (0.5-4.0))
[5]; Escherichia coli, read-out: Tet(X) Inhibitor MIC, alone, E. coli T-24a
  MIC: 256 µg/mL
[5]; [10]
  Combination (Antibiotic/Inhibitor) MICs: inhibitor: 32 µg/mL
[5]; [11]
  Combination (Antibiotic/Inhibitor) MICs: antibiotic: 8 µg/mL
[5]; with tigecycline
  FICI: 0.6
  Outcome: indifferent (indifferent (0.5-4.0))
[6]; Proteus penneri, read-out: Tet(X) Inhibitor MIC
  MIC: > 128 µg/mL
[6]; [10]
  Combination (Antibiotic/Inhibitor) MICs: inhibitor: 128 µg/mL
[6]; [11]
  Combination (Antibiotic/Inhibitor) MICs: antibiotic: 4 µg/mL
[6]; with tigecycline
  FICI: 2
  Outcome: indifferent (indifferent (0.5-4.0))

## CN(C)CCCN1c2ccccc2Sc2ccc(C(F)(F)F)cc21 [Triflupromazine]
[7]; Tet(X4) (Polarization)
  IC50: > 100000 nM
[8]; IC50, UPLC assay
  IC50: 102000 ± 29000 nM

## CN(C)CCCN1c2ccccc2Sc2ccc(Cl)cc21 [Chlorpromazine]
[7]; Tet(X4) (Polarization)
  IC50: > 100000 nM
[8]; 20 μM tigecycline, 50 nM Tet(X4), 100 μM NADPH, 5 mM MgCl2, 1 μM FAD, 100 mM TAPS pH 8.5, read-out: IC50, UPLC assay
  IC50: 110000 ± 19000 nM

## CN(C)c1cc(NC(=O)CNC(C)(C)C)c(O)c2c1C[C@H]1C[C@H]3[C@H](N(C)C)C(O)=C(C(N)=O)C(=O)[C@@]3(O)C(O)=C1C2=O [Tigecycline]
[7]; FP assay
  IC50: 18.6 ± 4.9 nM
[7]; Tet(X4) (Polarization)
  IC50: 22 nM and 19 nM
[1]; read-out: Tigecycline MIC, L-arabinose 0 %w/v
  MIC: 0.25 µg/mL
[1]; read-out: Tigecycline MIC, L-arabinose 0.0002 %w/v
  MIC: 0.25 µg/mL
[1]; read-out: Tigecycline MIC, L-arabinose 0.002 %w/v
  MIC: 0.5 µg/mL
[1]; read-out: Tigecycline MIC, L-arabinose 0.02 %w/v
  MIC: 2 µg/mL
[1]; read-out: Tigecycline MIC, L-arabinose 0.2 %w/v
  MIC: 8 µg/mL
[1]; read-out: Tigecycline MIC, L-arabinose 0.4 %w/v
  MIC: 8 µg/mL
[1]; [9]
  Antibiotic MIC: 4 µg/mL
[1]; without L-arabinose induction
  Antibiotic MIC: 0.25 µg/mL
[2]; Acinetobacter spp. NT3-1
  Antibiotic MIC: 4 µg/mL
[3]
  Antibiotic MIC: 32 µg/mL
[4]
  Antibiotic MIC: 8 µg/mL
[5]; E. coli T-24a
  Antibiotic MIC: 16 µg/mL
[6]
  Antibiotic MIC: 8 µg/mL

## C[C@H]1c2cccc(O)c2C(=O)C2=C(O)[C@]3(O)C(=O)C(C(N)=O)=C(O)[C@@H](N(C)C)[C@@H]3[C@@H](O)[C@@H]21 [Doxycycline]
[7]; FP assay
  IC50: 1580 ± 150 nM
[1]; 0.2%w/v L-arabinose (Table S7)
  Antibiotic MIC: 32 µg/mL
[1]; without L-arabinose induction
  Antibiotic MIC: 1 µg/mL
[2]; Acinetobacter spp. NT3-1
  Antibiotic MIC: 8 µg/mL
[3]
  Antibiotic MIC: 32 µg/mL
[4]
  Antibiotic MIC: 32 µg/mL
[5]; E. coli T-24a
  Antibiotic MIC: 32 µg/mL
[6]
  Antibiotic MIC: 16 µg/mL
